Consider 16 molecules from patent US10717733B2, “Haloallylamine indole and azaindole derivative inhibitors of lysyl oxidases and uses thereof” (PHARMAXIS LTD., priority 2016, dated 2020).

Structures can show the parent of a compound that is named as a salt.

What all share (type): biochemical
The target of one assay is Recombinant human MAO-B (Homo sapiens (Human), UniProt P27338). Description: Inhibition of human recombinant MAO-B. The note with it: benzylamine 100 μM. The method in brief:
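Recombinant human MAO-B used as enzyme source (0.06 mg/mL, stated concentration). Run as for the human SSAO/VAP-1 assay, except benzylamine substrate at 100 μM.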

Assay [1] deals with human recombinant SSAO/VAP-1 (Homo sapiens (Human), UniProt Q16853). Description: Inhibition of human recombinant SSAO/VAP-1 amine oxidase activity. As to conditions: 30 min preincubation at 37° C., 600 μM benzylamine. The method in brief:
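Purified SSAO/VAP-1 (residues 34-763, expressed in CHO Lec 8 cells; 0.25 μg/mL) preincubated 30 min at 37° C with compound in 0.1 M sodium phosphate pH 7.4. Reaction mix of 600 μM benzylamine, 120 μM Amplex Red and 1.5 U/mL HRP added; fluorescence (ex 565/em 590 nm) read every 2.5 min for 30 min; IC50 from kinetic slopes over 4-11 point curves.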

Another assay addresses Bovine LOX (Bos taurus (Bovine), UniProt P33072). Kind of assay: LOX inhibition, peroxidase-coupled Amplex Red amine oxidase assay. The note with it: 30 min preincubation at 37° C., putrescine substrate. An outline of the steps: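 Bovine LOX in 1.2 M urea, 50 mM sodium borate pH 8.2 with 1 μM mofegiline and 0.5 mM pargyline; putrescine at twice KM (e.g. 20 mM for LOX) with Amplex Red/HRP. Fluorescence (ex 565/em 590 nm) read kinetically over 30 min at 37–45 °C; IC50 from slopes.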

A further assay addresses Human LOXL2 (Homo sapiens (Human), UniProt Q9Y4K0). Description: LOXL2 inhibition, peroxidase-coupled Amplex Red amine oxidase assay. As to conditions: 30 min preincubation at 37° C., putrescine substrate. The method in brief: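 Enzyme in 1.2 M urea, 50 mM sodium borate pH 8.2 with 1 μM mofegiline and 0.5 mM pargyline, preincubated 30 min at 37° C with compound (11-point CRC). Putrescine at twice KM (10 mM for LOXL2) with Amplex Red/HRP; fluorescence (ex 565, em 590) read kinetically 30 min; IC50 from slopes.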

Chain of Recombinant human MAO-B (P27338 whole entry): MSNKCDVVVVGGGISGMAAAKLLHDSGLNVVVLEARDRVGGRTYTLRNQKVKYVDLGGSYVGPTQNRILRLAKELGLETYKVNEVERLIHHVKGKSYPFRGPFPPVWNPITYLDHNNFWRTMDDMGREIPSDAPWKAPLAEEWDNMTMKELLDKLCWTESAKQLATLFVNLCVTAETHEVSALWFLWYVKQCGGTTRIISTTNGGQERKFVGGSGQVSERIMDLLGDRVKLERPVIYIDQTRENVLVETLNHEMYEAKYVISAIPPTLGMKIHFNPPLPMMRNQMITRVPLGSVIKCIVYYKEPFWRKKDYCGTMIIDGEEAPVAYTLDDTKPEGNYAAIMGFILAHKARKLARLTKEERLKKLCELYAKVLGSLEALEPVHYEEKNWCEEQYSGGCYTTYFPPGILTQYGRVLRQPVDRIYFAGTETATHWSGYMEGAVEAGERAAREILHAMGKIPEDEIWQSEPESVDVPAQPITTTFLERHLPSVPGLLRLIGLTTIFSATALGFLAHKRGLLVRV
Chain of Bovine LOX (P33072 170-418): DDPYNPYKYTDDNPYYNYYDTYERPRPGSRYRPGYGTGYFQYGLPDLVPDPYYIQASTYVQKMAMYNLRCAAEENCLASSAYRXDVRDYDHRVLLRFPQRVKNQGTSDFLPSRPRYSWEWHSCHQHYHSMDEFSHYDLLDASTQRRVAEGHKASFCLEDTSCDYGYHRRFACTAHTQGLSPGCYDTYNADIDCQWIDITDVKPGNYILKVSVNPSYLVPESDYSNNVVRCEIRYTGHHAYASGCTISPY
Chain of human recombinant SSAO/VAP-1 (Q16853 34-763): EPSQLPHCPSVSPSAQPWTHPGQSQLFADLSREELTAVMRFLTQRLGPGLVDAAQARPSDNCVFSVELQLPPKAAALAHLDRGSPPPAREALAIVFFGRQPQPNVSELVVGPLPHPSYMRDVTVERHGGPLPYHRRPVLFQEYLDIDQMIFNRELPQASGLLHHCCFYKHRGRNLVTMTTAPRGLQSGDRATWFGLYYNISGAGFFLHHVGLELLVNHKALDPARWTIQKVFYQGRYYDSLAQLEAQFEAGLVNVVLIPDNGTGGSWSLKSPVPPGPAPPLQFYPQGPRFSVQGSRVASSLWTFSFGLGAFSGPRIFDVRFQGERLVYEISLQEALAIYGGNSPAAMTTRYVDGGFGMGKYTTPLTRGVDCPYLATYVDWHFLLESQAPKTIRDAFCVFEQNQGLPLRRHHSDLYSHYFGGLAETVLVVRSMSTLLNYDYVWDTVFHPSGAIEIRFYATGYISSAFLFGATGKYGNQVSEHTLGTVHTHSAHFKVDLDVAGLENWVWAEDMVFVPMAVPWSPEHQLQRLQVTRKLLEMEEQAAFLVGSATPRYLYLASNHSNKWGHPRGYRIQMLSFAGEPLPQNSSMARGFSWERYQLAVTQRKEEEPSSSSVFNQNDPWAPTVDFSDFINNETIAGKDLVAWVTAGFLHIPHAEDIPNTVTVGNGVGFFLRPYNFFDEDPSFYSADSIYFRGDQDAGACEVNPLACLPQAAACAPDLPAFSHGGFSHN
Chain of Human LOXL2 (Q9Y4K0 26-774): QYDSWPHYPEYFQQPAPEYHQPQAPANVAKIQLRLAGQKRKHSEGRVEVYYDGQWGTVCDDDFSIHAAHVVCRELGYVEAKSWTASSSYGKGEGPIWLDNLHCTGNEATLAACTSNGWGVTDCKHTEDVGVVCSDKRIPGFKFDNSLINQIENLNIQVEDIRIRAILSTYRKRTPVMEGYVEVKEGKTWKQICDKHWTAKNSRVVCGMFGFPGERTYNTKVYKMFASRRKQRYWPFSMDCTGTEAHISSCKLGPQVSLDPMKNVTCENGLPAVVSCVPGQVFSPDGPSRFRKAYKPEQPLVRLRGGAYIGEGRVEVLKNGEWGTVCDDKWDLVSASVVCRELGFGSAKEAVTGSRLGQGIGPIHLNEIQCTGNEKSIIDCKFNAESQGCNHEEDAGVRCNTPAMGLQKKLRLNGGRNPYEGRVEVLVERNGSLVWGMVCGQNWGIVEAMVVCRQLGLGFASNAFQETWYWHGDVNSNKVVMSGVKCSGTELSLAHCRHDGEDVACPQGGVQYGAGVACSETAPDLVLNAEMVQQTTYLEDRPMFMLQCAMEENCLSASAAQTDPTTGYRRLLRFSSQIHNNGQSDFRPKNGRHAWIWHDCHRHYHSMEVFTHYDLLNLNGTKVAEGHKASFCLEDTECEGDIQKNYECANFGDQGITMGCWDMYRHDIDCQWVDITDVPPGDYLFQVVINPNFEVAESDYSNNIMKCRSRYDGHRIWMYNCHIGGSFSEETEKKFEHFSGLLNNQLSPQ

With `Cc1c(-c2cccc(S(=O)(=O)N(C)C)c2)c2cc(C(=O)NC(C)C)ccc2n1C/C(F)=C/CN` [Compound 35, (Z)-1-(4-amino-2-fluorobut-2-en-1-yl)-3-(3-(N,N-dimethylsulfamoyl)phenyl)-N-isopropyl-2-methyl-1H-indole-5-carboxamide], the IC50 (as a rule, the concentration at which inhibition is half-maximal) at Recombinant human MAO-B was over 3000 nM; in assay [1] it was over 3000 nM; against Bovine LOX, over 300 nM; at Human LOXL2, under 300 nM.

Regarding `Cc1c(-c2cccc(S(=O)(=O)N(C)C)c2)c2cc(C(=O)N(C)C(C)C)ccc2n1C/C(F)=C/CN` [Compound 36, (Z)-1-(4-amino-2-fluorobut-2-en-1-yl)-3-(3-(N,N-dimethylsulfamoyl)phenyl)-N-isopropyl-N,2-dimethyl-1H-indole-5-carboxamide], the IC50 on Recombinant human MAO-B was over 3000 nM; in assay [1], over 3000 nM; at Bovine LOX, over 300 nM; on Human LOXL2, under 300 nM.

Take `Cc1c(-c2cccc(S(=O)(=O)N(C)C)c2)c2cc(O)ccc2n1C/C(F)=C/CN` [Compound 37, (Z)-3-(1-(4-amino-2-fluorobut-2-en-1-yl)-5-hydroxy-2-methyl-1H-indol-3-yl)-N,N-dimethylbenzenesulfonamide]: the IC50 was over 3000 nM on Recombinant human MAO-B, over 3000 nM in assay [1], over 300 nM at Bovine LOX and under 300 nM against Human LOXL2.

As to `Cc1c(-c2cccc(N(C)S(C)(=O)=O)c2)c2cc(C(=O)O)ccc2n1C/C(F)=C/CN` [Compound 38, (Z)-1-(4-amino-2-fluorobut-2-en-1-yl)-2-methyl-3-(3-(N-methylmethylsulfonamido)phenyl)-1H-indole-5-carboxylic acid], the IC50 was over 3000 nM on Recombinant human MAO-B, over 3000 nM in assay [1], over 300 nM at Bovine LOX and under 300 nM on Human LOXL2.

In the case of `Cc1c(-c2cccc(N(C)S(C)(=O)=O)c2)c2cc(C(=O)N(C)C)ccc2n1C/C(F)=C/CN` [Compound 39, (Z)-1-(4-amino-2-fluorobut-2-en-1-yl)-N,N,2-trimethyl-3-(3-(N-methylmethylsulfonamido)phenyl)-1H-indole-5-carboxamide], the IC50 was over 3000 nM at Recombinant human MAO-B, over 3000 nM in assay [1], over 300 nM against Bovine LOX and under 300 nM against Human LOXL2.

In the case of `Cc1c(-c2cncc(S(=O)(=O)N(C)C)c2)c2cc(C(=O)O)ccc2n1C/C(F)=C/CN` [Compound 40, (Z)-1-(4-amino-2-fluorobut-2-en-1-yl)-3-(5-(N,N-dimethylsulfamoyl)pyridin-3-yl)-2-methyl-1H-indole-5-carboxylic acid], the IC50 at Recombinant human MAO-B is over 3000 nM; in assay [1] it was over 3000 nM; on Bovine LOX, over 300 nM; at Human LOXL2, under 300 nM.

On to `Cc1c(-c2cncc(S(=O)(=O)N(C)C)c2)c2cc(C(=O)N(C)C)ccc2n1C/C(F)=C/CN` [Compound 41, (Z)-1-(4-amino-2-fluorobut-2-en-1-yl)-3-(5-(N,N-dimethylsulfamoyl)pyridin-3-yl)-N,N,2-trimethyl-1H-indole-5-carboxamide], for which the IC50 was over 3000 nM at Recombinant human MAO-B, over 3000 nM in assay [1], over 300 nM on Bovine LOX and under 300 nM on Human LOXL2.

As for `CCOC(=O)c1ccc2c(n1)c(-c1cccc(S(=O)(=O)N(C)C)c1)c(C)n2C/C(F)=C/CN` [Compound 42, (Z)-ethyl 1-(4-amino-2-fluorobut-2-en-1-yl)-3-(3-(N,N-dimethylsulfamoyl)phenyl-2-methyl-1H-pyrrolo[3,2-b]pyridine-5-carboxylate, Dihydrochloride], the IC50 on Recombinant human MAO-B is over 3000 nM; in assay [1], over 3000 nM; against Bovine LOX it was over 300 nM; against Human LOXL2, under 300 nM.

Regarding `Cc1c(-c2cccc(S(=O)(=O)N(C)C)c2)c2nc(C(=O)O)ccc2n1C/C(F)=C/CN` [Compound 43, (Z)-1-(4-amino-2-fluorobut-2-en-1-yl)-3-(3-(N,N-dimethylsulfamoyl)phenyl)-2-methyl-1H-pyrrolo[3,2-b]pyridine-5-carboxylic acid], the IC50 at Recombinant human MAO-B was over 3000 nM; in assay [1], over 3000 nM; against Bovine LOX, over 300 nM; on Human LOXL2, under 300 nM.

`Cc1c(-c2cccc(S(=O)(=O)N(C)C)c2)c2nc(C(=O)N(C)C)ccc2n1C/C(F)=C/CN` [Compound 44, (Z)-1-(4-amino-2-fluorobut-2-en-1-yl)-3-(3-(N,N-dimethylsulfamoyl)phenyl)-N,N,2-trimethyl-1H-pyrrolo[3,2-b]pyridine-5-carboxamide]: the IC50 is over 3000 nM at Recombinant human MAO-B, over 3000 nM in assay [1], over 300 nM at Bovine LOX and under 300 nM at Human LOXL2.

Regarding `Cc1c(-c2cccc(S(=O)(=O)N(C)C)c2)c2nc(C(=O)NC(C)C)ccc2n1C/C(F)=C/CN` [Compound 45, (Z)-1-(4-amino-2-fluorobut-2-en-1-yl)-3-(3-(N,N-dimethylsulfamoyl)phenyl)-N-isopropyl-2-methyl-1H-pyrrolo[3,2-b]pyridine-5-carboxamide], the IC50 at Recombinant human MAO-B was over 3000 nM; in assay [1], over 3000 nM; on Bovine LOX it was over 300 nM; at Human LOXL2, under 300 nM.

`CNC(=O)c1ccc2c(n1)c(-c1cccc(S(=O)(=O)N(C)C)c1)c(C)n2C/C(F)=C/CN` [Compound 46, (Z)-1-(4-amino-2-fluorobut-2-en-1-yl)-3-(3-(N,N-dimethylsulfamoyl)phenyl)-N,2-dimethyl-1H-pyrrolo[3,2-b]pyridine-5-carboxamide]: the IC50 is over 3000 nM on Recombinant human MAO-B, over 3000 nM in assay [1], over 300 nM at Bovine LOX and under 300 nM at Human LOXL2.

Take `Cc1c(-c2cccc(S(=O)(=O)N(C)C)c2)c2cccc(C(=O)N(C)C)c2n1C/C(F)=C/CN` [Compound 47, (Z)-1-(4-amino-2-fluorobut-2-en-1-yl)-3-(3-(N,N-dimethylsulfamoyl)phenyl)-N,N,2-trimethyl-1H-indole-7-carboxamide]: the IC50 at Recombinant human MAO-B was over 3000 nM; in assay [1] it was over 3000 nM; at Bovine LOX, over 300 nM; on Human LOXL2 it was under 300 nM.

Take `Cc1c(-c2cccc(S(=O)(=O)N(C)C)c2)c2cccc(C(=O)O)c2n1C/C(F)=C/CN` [Compound 48, (Z)-1-(4-amino-2-fluorobut-2-en-1-yl)-3-(3-(N,N-dimethylsulfamoyl)phenyl)-2-methyl-1H-indole-7-carboxylic acid]: the IC50 was over 3000 nM on Recombinant human MAO-B, over 3000 nM in assay [1], over 300 nM on Bovine LOX and under 300 nM against Human LOXL2.

Regarding `COc1ccc2c(c1)c(-c1cccc(S(=O)(=O)N(C)C)c1)c(C)n2C/C(F)=C/CN` [Compound 49, (Z)-3-(1-(4-amino-2-fluorobut-2-en-1-yl)-5-methoxy-2-methyl-1H-indol-3-yl)-N,N-dimethylbenzenesulfonamide], the IC50 at Recombinant human MAO-B is over 3000 nM; in assay [1] it was over 3000 nM; against Bovine LOX, over 300 nM; against Human LOXL2 it was under 300 nM.

Turning to `Cc1c(-c2cccc(S(C)(=O)=O)c2)c2cc(C(=O)N(C)C)ccc2n1C/C(F)=C/CN` [Compound 50, (Z)-1-(4-amino-2-fluorobut-2-en-1-yl)-N,N,2-trimethyl-3-(3-(methylsulfonyl)phenyl)-1H-indole-5-carboxamide], the IC50 at Recombinant human MAO-B is over 3000 nM; in assay [1], over 3000 nM; against Bovine LOX, over 300 nM; against Human LOXL2 it was under 300 nM.
